Each structure is given as a SMILES string.

The source of these data is patent US11254680B2, “Cyclic iminopyrimidine derivatives as kinase inhibitors” (ABM Therapeutics Corporation, priority 2017, dated 2022).

For data set [1], the system named is A375 melanoma cells. Briefly: Antiproliferation assay in A375 cell line by CellTiter Glo. Type of data set: cell-based. As to conditions: Homo sapiens, A-375, 72 hours or 144 hours. As to the method:
In vitro anti-proliferation study of test compounds in A375 cell line by CellTiter Glo. The cells were routinely maintained as a monolayer culture in corresponding culture medium, at 37° C. with 5% CO2 in air.
Harvest the exponential growth cells by trypsin-EDTA digestion. Re-suspend the cell pellet in fresh culture medium, and adjust the concentration to needed (the cell density per well was listed in following form). The cell viability is over 98% by Trypan blue staining. Inoculate cells into 96 wells plates according to the plate map (90 μL/well). Incubate the plates at 37° C. and 5% CO2 overnight. The next day, prepare the 10×compound containing medium according to the plate map. Transfer 10 μL of 10×compound containing medium into each well of the assay plates (the final DMSO concentration is 0.5%). Gently mix the medium and incubate at 37° C. and 5% CO2 for another 72 hours or 144 hours.
Prepare the reagent according to the manufacture's instruction. Add 50 μL CellTiter-Glo Reagent in each well. Mix contents for 2 minutes on an orbital shaker to induce cell lysis. Allow the plate to incubate at room temperature for 10 minutes to stabilize luminescent signal. Transfer 100 μL of reaction contents of each well from the clear plates into white walled/white opaque 96-well plates. Record the luminescence on Envision.
Using the luminescence measurements [time zero (T0), control growth (C), and test growth in the presence of drug at the six concentration levels (Ti)], the percentage growth is calculated at each of the drug concentrations levels.
Percentage growth inhibition (GI) is calculated as: GI (%)═[(Ti-T0)/(C-T0)]×100 for concentrations for which Ti>=T0, and GI (%)═[(Ti-T0)/T0]×100 for concentrations for which Ti<T0. Data were analyzed using the XLFit (Excel) tool, fitting to a 4-parameter equation to generate concentration response curves. Concentration of compound that inhibits 50% of control cell growth (GI50) was back-interpolated when y=50% of net growth of DMSO treated control wells using nonlinear regression with the equation: f(x) 205 [fit=(A+((B−A)/(1+((C/x)^))))], where A is the minimum response (Ymin), B is the maximum response (Ymax), C is the inflection point of the curve (Re GI50) and D is the Hill coefficient. Growth inhibition of 50% (GI50) was calculated at the 50% Growth inhibition on the curve. Index values were the sum of Inhibition rate (IR) at each tested compound concentration.

The subject of data set [2] is HT-29 colon cancer cells. Kind of data set: Antiproliferation assay in HT-29 cells by CellTiter Glo. Type of data set: cell-based. Particulars: Homo sapiens, 72 hours or 144 hours. (In general: Cellular ATP, detected with luciferase, serves as a proxy for viable cell number.)
Data set [3] relates to P-glycoprotein (MDR1). Kind of data set: MDCK-MDR1 Permeability Assay. Particulars: dog; for efflux ratio at 120 min: MDCK-MDR1, Papp(B-A)/Papp(A-B); for Papp A→B at 120 min: MDCK-MDR1, apical to basolateral; for Papp A→B at 120 min / Papp B→A at 120 min: 1-30 μM; for Papp B→A at 120 min: MDCK-MDR1, basolateral to apical. The data set is classed as in vitro ADME, canine. As to the method:
MDCK-MDR1 cells originate from transfection of Madin Darby canine kidney (MDCK) cells with the MDR1 gene, the gene encoding for the efflux protein, P-glycoprotein. This cell line is ideal for identifying substrates of P-gp, with or without an inhibitor. The cells are seeded on a Multiscreen™ plate to form a confluent monolayer over 4 days prior to the experiment. On day 4, the test compound (1-30 μM concentration) is added to the apical side of the membrane and the transport of the compound across the monolayer is monitored over a 120 minutes time period. To study drug efflux, it is also necessary to investigate transport of the compound from the basolateral compartment to the apical compartment and calculate an efflux ratio.
The permeability coefficient (Papp) is calculated from the following equation: Papp=[(dQ/dt)/C0×A] where dQ/dt is the rate of permeation of the drug across the cells, C0 is the donor compartment concentration at time zero and A is the area of the cell monolayer.
An efflux ratio is calculated from the mean apical to basolateral (A-B) Papp data and basolateral to apical (B-A) Papp data. Efflux Ratio=Papp(B−A)/Papp(A−B)

Data set [4] in a line: Caco-2 Permeability Assay. Type of data set: in vitro ADME. As to conditions: human; for efflux ratio at 120 min: Caco-2; for Papp A→B at 120 min: Caco-2, apical to basolateral; for Papp A→B at 120 min / Papp B→A at 120 min: 1-30 μM; for Papp B→A at 120 min: Caco-2, basolateral to apical. As for the experimental part: Caco-2 cells are widely used as an in vitro assay to measure the permeability of a drug compound. The Caco-2 cell line is derived from a human colorectal carcinoma, and when cultured, the cells spontaneously differentiate into monolayers of polarized enterocytes. Caco-2 cells express P-glycoprotein and breast cancer resistance protein, two of the most relevant cell membrane active transporters that affect drug compound's permeability into cells and blood brain barrier.
The cells are seeded on Millipore Millicell plates and form a confluent monolayer over 20 days prior to the experiment. On day 20, the test compound (1-30 μM concentration) is added to the apical side of the membrane and the transport of the compound across the monolayer is monitored over a 120 minutes time period. To study drug efflux, it is also necessary to investigate transport of the compound from the basolateral compartment to the apical compartment.
The permeability coefficient (Papp) is calculated from the following equation: Papp=[(dQ/dt)/C0×A] where dQ/dt is the rate of permeation of the drug across the cells, C0 is the donor compartment concentration at time zero and A is the area of the cell monolayer. C0 is obtained from analysis of the dosing solution at the start experiment.
On the technique in general: Caco-2 cells form a polarised layer with tight junctions and transporters.

Data set [5] can be described thus: Mouse Pharmacokinetics Study. Type of data set: in vivo. As to conditions: CD-1 mice; for Vd / half-life / clearance / AUC / Cmax / Tmax: mouse, plasma; for Vd / half-life / clearance: IV 2.5 mg/kg; for half-life: 20% Hydroxypropyl-beta-cyclodextrin; for clearance: read-out: Clp. The text has this:
The pharmacokinetic properties of selected compounds were studied CD-1 mice via intravenous and oral administration by using a standard protocol. The test articles were formulated in 20% Hydroxypropyl-beta-cyclodextrin, either as a clear solution or fine suspension.

Broadly, the GI50 is the concentration that inhibits growth by half. As usually defined, the efflux ratio is a quotient of directional permeabilities that is used to spot active efflux. One may read the Papp A→B as how fast a substance crosses the layer from the apical side. High values mean ready permeation, low ones poor permeation. By Papp B→A is commonly meant the apparent permeability from the basolateral to the apical side of a cell layer. A word on the Vd: it is the apparent volume that relates the amount in the body to the concentration in plasma or blood. Higher therefore signals wide distribution into tissue. The term half-life denotes the time in which the quantity being followed falls by half. One may read the AUC as concentration integrated over time. A high value points to more exposure. For orientation: Cmax means the highest concentration seen after dosing. One may read the Tmax as the time at which the peak concentration occurs. For `CCCS(=O)(=O)Nc1cccc(Oc2ccc3c(c2)C2=NCCN2C=N3)c1C#N` [Compound 1, N-(2-Cyano-3-((2,3-dihydroimidazo[1,2-c]quinazolin-9-yl)oxy)phenyl)propane-1-sulfonamide], the GI50 in data set [1] was less than 100 nM. Moreover, in data set [2], the GI50 was less than 100 nM. For the same compound, in data set [3], the efflux ratio at 120 min came to 6.53, the Papp A→B at 120 min worked out at 3.65 ×10⁻⁶ cm/s and the Papp B→A at 120 min is 23.8 ×10⁻⁶ cm/s. In addition, in data set [4], the efflux ratio at 120 min is 2.92, the Papp A→B at 120 min stood at 6.42 ×10⁻⁶ cm/s and the Papp B→A at 120 min stood at 18.7 ×10⁻⁶ cm/s. In data set [5] (PO 30 mg/kg), the F came to 112 ± 14%, the AUC was 207000 ± 25900 ng·h/mL, the Cmax is 37300 ± 6240 ng/mL and the Tmax was found to be 60 min. In data set [5], the Vd was 0.348 ± 0.037 L/kg, the half-life was 88.2 ± 11.4 min and the clearance is 2.77 ± 0.52 mL/min/kg.
On to `CCCS(=O)(=O)Nc1cccc(Oc2ccc3c(c2)C2=NCCN2C=N3)c1Cl` [Compound 6, N-(2-Chloro-3-((2,3-dihydroimidazo[1,2-c]quinazolin-9-yl)oxy)phenyl)propane-1-sulfonamide], for which the GI50 in data set [1] was less than 100 nM. Also, in data set [2], the GI50 fell in the range of 100 to 1000 nM. In data set [3], the efflux ratio at 120 min worked out at 1.42, the Papp A→B at 120 min came out at 26.3 ×10⁻⁶ cm/s and the Papp B→A at 120 min turned out to be 37.2 ×10⁻⁶ cm/s. For the same compound, in data set [4], the efflux ratio at 120 min was 0.31, the Papp A→B at 120 min stood at 43.5 ×10⁻⁶ cm/s and the Papp B→A at 120 min was 13.5 ×10⁻⁶ cm/s. In data set [5] (PO 25 mg/kg), the F was 58.9 ± 21.5%, the AUC was 8220 ± 3000 ng·h/mL, the peak level (Cmax) was 4220 ± 1350 ng/mL and the Tmax was found to be 15 min. For the same compound, in data set [5], the Vd is 1.22 ± 0.16 L/kg, the half-life is 28 ± 0.72 min and the clearance amounted to 30.3 ± 4.64 mL/min/kg.
`CCCS(=O)(=O)Nc1cccc(Oc2ccc3c(c2)C2=NCCCN2C=N3)c1Cl` [Compound 21, N-(2-Chloro-3-((3,4-dihydro-2H-pyrimido[1,2-c]quinazolin-10-yl)oxy)phenyl)propane-1-sulfonamide] had a GI50 in data set [1] of less than 100 nM. In data set [2], this compound yielded a GI50 of less than 100 nM. For the same compound, in data set [3], the efflux ratio at 120 min is 1.68, the apical-to-basolateral permeability (Papp A→B) at 120 min was determined as 24.1 ×10⁻⁶ cm/s and the Papp B→A at 120 min was 40.5 ×10⁻⁶ cm/s. In data set [4], the efflux ratio at 120 min turned out to be 0.36, the Papp A→B at 120 min is 52.9 ×10⁻⁶ cm/s and the Papp B→A at 120 min stood at 19.2 ×10⁻⁶ cm/s. Further, in data set [5] (PO 25 mg/kg), the F was 113 ± 11.1%, the AUC is 53800 ± 5210 ng·h/mL, the concentration peaked (Cmax) at 11700 ± 2380 ng/mL and the Tmax stood at 30 min. Moreover, in data set [5], the Vd worked out at 0.948 ± 0.166 L/kg, the half-life was 72.6 ± 6 min and the clearance is 9.03 ± 1.31 mL/min/kg.
